Source: patent US7141589B2, “Methods of inhibiting formation of vascular channels and methods of inhibiting proliferation” (The United States of America as represented by the …, priority 2001, dated 2006)
Where “and” joins values, the source holds several entries; their conditions need not be identical. Identical values can stand only once. Like-named read-outs stand apart in the source and are kept apart here.

Legend:
[1] = test system: HUVEC; test: Inhibition of DNA synthesis in HUVEC ([3H]thymidine incorporation); assay type: cell-based; conditions: Homo sapiens, read-out: IC50 for inhibition of DNA synthesis
Experimental: The test compounds were added at the indicated concentrations to exponentially growing HUVEC in 24-well plates (1×10^5 cells/well). […] DNA was precipitated with 5% trichloroacetic acid, washed once with 5% trichloroacetic acid, and dissolved in 0.2 ml of 0.2 N NaOH for measurement of radioactivity.

[2] = test system: HUVEC; test: Tube formation on Matrigel by HUVEC; assay type: cell-based, human; conditions: 18 h; for concentration at which disruption of tube formation was manifest: HUVEC on Matrigel
Experimental: The formation of tubes on Matrigel by HUVEC was assessed as described (Kubota et al., J. Cell. Biol. 107(4): 1589–1598 (1988) and Ponce, In Vitro Matrigel Angiogenesis Assays. Totowa, N.J.: Humana Press Inc., 2000) with minor modifications as follows. Matrigel, 0.3 ml, was added to each well of a 24-well plate. After the Matrigel had gelled, HUVEC (5×10^4 cells), trypsinized from an exponentially growing culture, were added to each well in 0.2 ml of supplemented EBM-2. Test compounds were added in duplicate for each concentration and incubated at 37° C., 5% CO2, for 18 h. The medium was aspirated the next day, and the cells were fixed and stained with Diff-Quick Fix and staining solution II (Baxter Scientific Products, McGaw, Ill.).

[3] = test system: HUVEC; test: Cell cycle analysis of HUVEC by flow cytometry; assay type: cell-based, human; conditions: for concentration that gave close to the maximum accumulation (>70%) of HUVEC in G1: 24 h of treatment
Experimental: (§1) Exponentially growing HUVEC were treated with the test compounds for 24 or 48 h, and processed for cell cycle analysis. After harvesting cells by trypsin treatment, isolation and staining of cell nuclei were performed using a CycleTEST™ PLUS DNA Reagent Kit (Becton & Dickinson, Rutherford, N.J.), according to the procedure recommended by the manufacturer. Briefly, nuclei were released from cells by treatment with a nonionic detergent and trypsin. The nuclear chromatin was stabilized with spermine. Propidium iodide was used to stain the DNA. Fluorescence histograms were generated with a FACSCalibur cytometer (Becton & Dickinson, Rutherford, N.J.), using CELLQuest software.

[4] = target: T1, deoxyhypusine hydroxylase (Homo sapiens, UniProt Q9BU89); test: Inhibition of deoxyhypusine hydroxylation in HUVEC ([3H]spermidine labeling); assay type: cell-based; conditions: for IC50: [3H]spermidine, 18-20 h
T1 construct: endogenous in cells; host or cells: HUVEC
T1 sequence (Q9BU89 1-302): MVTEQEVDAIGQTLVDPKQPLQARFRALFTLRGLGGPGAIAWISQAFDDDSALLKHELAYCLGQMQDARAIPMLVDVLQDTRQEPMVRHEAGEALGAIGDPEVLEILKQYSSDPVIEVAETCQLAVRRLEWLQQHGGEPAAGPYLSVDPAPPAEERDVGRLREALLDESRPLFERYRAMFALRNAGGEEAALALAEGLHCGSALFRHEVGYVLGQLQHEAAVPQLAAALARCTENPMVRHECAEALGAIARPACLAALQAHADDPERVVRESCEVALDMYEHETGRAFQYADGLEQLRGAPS
Experimental: (§2) Exponentially growing HUVEC (5×10^5 cells per 60-mm dish) were incubated with 5 μCi/ml of [1,8-^3H]spermidine for 18 h in the presence or absence of the indicated concentrations of inhibitors. The cells were washed with PBS and harvested by centrifugation at 300×g for 5 minutes. Cellular proteins were precipitated with 10% trichloroacetic acid containing 1 mM each of unlabeled spermidine, spermine and putrescine, and the precipitates were washed three times to remove radiolabeled free polyamines. The washed precipitates were hydrolyzed in 6 N HCl for 18 h at 115° C. Radiolabeled hypusine and deoxyhypusine released by acid hydrolysis were separated by ion exchange chromatography using an automated Dionex D-400 amino acid analyzer (Park et al., (1982), supra). The radioactivity in the hypusine and the deoxyhypusine fractions was measured using a Beckman liquid scintillation spectrometer.

[5] = test system: Siha cells; test: Inhibition of DNA synthesis in Siha cells; assay type: cell-based, human; conditions: log-phase Siha cells, 20 hours
Experimental: The test compounds were added at the indicated concentrations to exponentially growing HUVEC in 24-well plates (1×10^5 cells/well). At 10 h, [^3H]thymidine (1 μCi/well) was added. After an additional 2-h incubation, the cells were washed twice with PBS. DNA was precipitated with 5% trichloroacetic acid, washed once with 5% trichloroacetic acid, and dissolved in 0.2 ml of 0.2 N NaOH for measurement of radioactivity.
(§3) Siha cells were incubated for 20 hours with increasing concentrations of ciclopirox and then metabolically labeled to determine the ability to inhibit DNA synthesis, as described in Example 4, and the ability to inhibit deoxyhypusine hydroxylation, as described in Example 2. Cell cycle arrest was assessed by flow cytometry, as described in Example 5.

[6] = target: T1, deoxyhypusine hydroxylase; test: Inhibition of deoxyhypusine hydroxylation in Siha cells; assay type: cell-based; conditions: 30 μM, 20 hours
Experimental: as §2, §3

[7] = test system: prolyl 4-hydroxylase; test: Inhibition of collagen proline 4-hydroxylation in HUVEC ([3H]proline labeling); assay type: cell-based, human
Experimental: For the determination of collagen proline 4-hydroxylation, exponentially growing HUVEC were plated in 60-mm dishes. After cell attachment, ascorbic acid (50 μg/ml), β-aminopropionitrile (30 μg/ml), and the test compounds were added along with [^3H]proline (20 μCi/ml). After an 18-h incubation, labeled proteins (including collagen) released into the medium were precipitated with 10% trichloroacetic acid. After washing three times with 5% trichloroacetic acid solution, the precipitated proteins were hydrolyzed in 6N HCl at 115° C. for 24 h. Unlabeled hydroxyproline was added to each sample. Radioactive proline and hydroxyproline were separated by thin layer chromatography on silica gel-coated glass plates in 75% phenol (phenol:water, 75:25 w/w) containing 0.2 mg/ml NaCN (Brenner et al., Dünnschict-Chromatographie von Aminosäuren. Experientia 16: 378–383 (1960). The positions of proline and hydroxyproline were visualized by the ninhydrin reaction. Hydroxyproline separated from proline with Rf values of 0.45 and 0.58, respectively. The silica gel in the hydroxyproline and proline areas was scraped off, eluted with 0.5 ml of water, and the radioactivity in each spot was counted. The degree of proline hydroxylation was estimated from the ratio of [^3H]hydroxyproline to the total radioactivity in [^3H]proline plus [^3H]hydroxyproline.

[8] = test system: chick aortic arch rings; test: Chick aortic arch ring sprouting on Matrigel
Experimental: The assay was carried out as described previously for rat aortic rings (Gho et al., 1999), supra) with a slight modification. Briefly, the aortic arches were dissected from 14-day-old chick embryos, cleaned free of unwanted tissue, and cut into 0.8 mm slices. Each ring was transferred into the center of a well of a 24-well plate to which 1.5 μl of Matrigel had just been added. Ten μl of ice-cold Matrigel were added immediately to embed the ring. When the Matrigel was solidified, 500 μl of supplemented EBM-2 were added to each well. After addition of the test compounds in sextuplicate for each concentration, the plates were incubated at 37° C. with 5% CO2, and the degree of sprouting was assessed by a blinded observer after 48 and 72 h.

[9] = test system: Siha cells; test: Cell cycle arrest in Siha cells by flow cytometry; assay type: cell-based, human; conditions: 30 μm
Experimental: as §1, §3

With `c1ccc(-c2ccccn2)nc1` [2,2′-dipyridyl] the IC50 ([1]; 18 h of treatment) was 55 µM, the “concentration at which disruption of tube formation was manifest” value [2] was 100 µM and the “concentration that gave close to the maximum accumulation (>70%) of HUVEC in G1” value [3] was 100 µM. The IC50 [4] was 26 µM.

`Cc1cc(C2CCCCC2)n(O)c(=O)c1` [ciclopirox] was tested, and the “inhibition of DNA synthesis” value [5] was “sharp, dose-dependent inhibition”, the IC50 ([1]; 18 h, 18 h of treatment) was roughly 10 µM and the “suppression of deoxyhypusine hydroxylation” value [6] was “totally suppressed”. The “concentration at which disruption of tube formation was manifest” value [2] was 10 to 20 µM, the “inhibition of proline hydroxylation” value ([7]; 10 μM) was 63% and the “relative inhibition of sprouting” value ([8]; 72 h) was “the most inhibitory”. The “cell cycle effect” value [9] was “arrest in late G1”, the “concentration that gave close to the maximum accumulation (>70%) of HUVEC in G1” value [3] was 30 µM and the “concentration giving cell cycle arrest similar to that at 24 h with 30 μM” value ([3]; 48 h treatment) was 10 µM. The “concentration above which no [3H]hypusine was detectable (complete inhibition of deoxyhypusine hydroxylase)” value ([4]; 20 h) was greater than 10 µM, the “concentration at which only [3H]hypusine but no [3H]deoxyhypusine was detected (no inhibition)” value ([4]; 20 h) was no more than 2.5 µM and the IC50 [4] was ~5 µM and 5 µM.

For `Cc1c(O)c(=O)ccn1C` [deferiprone, 1,2-dimethyl-3-hydroxypyrid-4-one], the IC50 ([1]; 18 h, 18 h of treatment) was 130 µM, the “inhibition of tube formation” value ([2]; 200 μM) was “Modest inhibition” and the “concentration showing a strong inhibition of sprouting” value ([8]; 72 h of incubation) was 400 µM. The “concentration that gave close to the maximum accumulation (>70%) of HUVEC in G1” value [3] was 200 µM and the IC50 [4] was 117 µM.

In the case of `CC(=O)N(O)CCCCCNC(=O)CCC(=O)N(O)CCCCCNC(=O)CCC(=O)N(O)CCCCCN` [deferoxamine], the IC50 ([1]; 18 h of treatment) is reported as 16 µM, the “inhibition of proline hydroxylation” value ([7]; 100 μM) is reported as 40% and the “concentration that gave close to the maximum accumulation (>70%) of HUVEC in G1” value [3] is reported as 50 µM. The IC50 [4] was 16 µM and ~16 µM.

For `NC(Cn1ccc(=O)c(O)c1)C(=O)O` (stereo not shown) [mimosine], the IC50 ([1]; 18 h) was 455 µM, the “impairment of tube formation” value ([2]; 400 μM) was “little sign of impairment” and the “inhibition of proline hydroxylation” value ([7]; 400 μM) was “only minor inhibition”. The “inhibition of sprout growth” value ([8]; 400 μM, 72 h) was “moderate inhibition”, the “increase in G1” value ([3]; 400 μM, 24 h incubation) was “did not cause a significant increase in G1” and the IC50 [4] was 191 µM.
